The experiment concerns the target T1, human chemokine receptor 2 isoform B (Homo sapiens, UniProt P41597).
T1 construct: host or cells: CHOK1-CCR2B-A5 (CHO-K1)
T1 sequence (P41597 1-360 isoform P41597-2): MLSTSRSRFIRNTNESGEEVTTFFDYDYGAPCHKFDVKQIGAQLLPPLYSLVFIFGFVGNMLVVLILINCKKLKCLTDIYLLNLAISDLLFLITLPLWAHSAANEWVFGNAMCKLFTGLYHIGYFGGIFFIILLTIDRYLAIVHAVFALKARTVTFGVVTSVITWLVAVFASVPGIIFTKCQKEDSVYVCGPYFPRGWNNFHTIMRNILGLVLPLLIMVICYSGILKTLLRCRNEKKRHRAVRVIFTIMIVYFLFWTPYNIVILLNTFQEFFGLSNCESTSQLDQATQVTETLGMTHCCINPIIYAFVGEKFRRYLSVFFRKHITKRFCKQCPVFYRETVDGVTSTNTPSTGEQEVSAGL
Description: Calcium mobilization assay (CHOK1-CCR2B-A5 cells, FLIPR, MCP-1 stimulated). The conditions noted are these: Ca mobilisation assay for CCR2, antagonist activity, 50% inhibition of specific calcium increases after 20 nM MCP-1. Format: cell-based. As for the experimental part: CHOK1-CCR2B-A5 cells (from Euroscreen) stably overexpressing the human chemokine receptor 2 isoform B were cultured in Nutrient Hams F12 medium supplemented with 5% FBS, 100 U/ml penicillin, 100 μg/ml streptomycin, 400 μg/ml G418 and 5 μg/ml puromycin.
For the assay cells were grown overnight in 384-well black clear flat bottom polystyrene plates (Costar) at 37° C. at 5% CO2. After washing with DMEM, 20 mM Hepes, 2.5 mM probenecid, 0.1% BSA (DMEM assay buffer) cells were loaded with 4 μM Fluo-4 in the same DMEM assay buffer for 2 hours at 30° C. Excess dye was removed and cells were washed with DMEM assay buffer. 384-well compound plates were prepared with DMEM assay buffer/0.5% DMSO with or without various concentrations of test compounds. Usually compounds were tested for agonist and antagonist activity.
Test compounds were added to the assay plate and agonist activity was monitored as fluorescence for 80 seconds with a FLIPR (488 nm excitation; 510-570 nm emission; Molecular Devices). After 20-30 min. of incubation at 30° C., 20 nM MCP-1 (R&D; Roche) was added and fluorescence was monitored again for 80 seconds. Increases in intracellular calcium are reported as maximum fluorescence after agonist exposure minus basal fluorescence before exposure. Antagonist activity is indicated as inhibitor concentration required for 50% inhibition of specific calcium increases.
By IC50 is commonly meant the concentration at which inhibition is half-maximal. As to `C[C@H]1C(=O)N2[C@@H](CCN3CCC4(CC4)C(F)(F)C3)COC[C@H]2CN1C(=O)Nc1cccc(Cl)c1` [Example 54, (4S,7S,9aR)—N-(3-chlorophenyl)-4-(2-(4,4-difluoro-6-azaspiro[2.5]octan-6-yl)ethyl)-7-methyl-6-oxohexahydropyrazino[2,1-c][1,4]oxazine-8(1H)-carboxamide], the IC50 amounted to 170 nM. Take `C[C@H]1C(=O)N2C(CN1C(=O)Nc1cccc(C(F)(F)F)c1)OC[C@@H]2CCN1CCC2(CC2)[C@H](O)C1` (stereo partly drawn) [Example 5, (3S,6S)-3-[2-((S)-4-Hydroxy-6-aza-spiro[2.5]oct-6-yl)-ethyl]-6-methyl-5-oxo-hexahydro-oxazolo[3,2-a]pyrazine-7-carboxylic acid (3-trifluoromethyl-phenyl)-amide]: the IC50 was 67.9 nM. For `C[C@H]1C(=O)N2[C@@H](CCC(=O)N3CCC4(CC4)[C@H](O)C3)CO[C@H]2CN1C(=O)Nc1ccc(C(F)(F)F)c(Cl)c1` [Example 25, (3S,6S,8aS)-3-[3-((S)-4-Hydroxy-6-aza-spiro[2.5]oct-6-yl)-3-oxo-propyl]-6-methyl-5-oxo-hexahydro-oxazolo[3,2-a]pyrazine-7-carboxylic acid (3-chloro-4-trifluoromethyl-phenyl)-amide], the concentration for half-maximal inhibition (IC50) is 20 nM. The same measure for `C[C@H]1C(=O)N2[C@@H](CCN3CCC4(CC4)[C@H](O)C3)CCC[C@H]2CN1C(=O)Nc1cccc(F)c1` [Example 67, (3S,6R,9aS)-6-[2-((S)-4-Hydroxy-6-aza-spiro[2.5]oct-6-yl)-ethyl]-3-methyl-4-oxo-octahydro-pyrido[1,2-a]pyrazine-2-carboxylic acid (3-fluoro-phenyl)-amide]: 7.9 nM; for `C[C@H]1C(=O)N2C(CN1C(=O)Nc1ccc(Cl)c(Cl)c1)OC[C@@H]2CC(=O)N1CCC2(CC2)[C@H](O)C1` (stereo partly drawn) [Example 29, (3S,6S)-3-[2-((S)-4-Hydroxy-6-aza-spiro[2.5]oct-6-yl)-2-oxo-ethyl]-6-methyl-5-oxo-hexahydro-oxazolo[3,2-a]pyrazine-7-carboxylic acid (3,4-dichloro-phenyl)-amide]: 774 nM. The same measure for `C[C@H]1C(=O)N2[C@@H](CCN3CCC4(CC4)[C@H](O)C3)COC[C@H]2CN1C(=O)Nc1ccc(C(F)(F)F)c(Cl)c1` [Example 32, (4S,7S,9aR)-4-[2-((S)-4-Hydroxy-6-aza-spiro[2.5]oct-6-yl)-ethyl]-7-methyl-6-oxo-hexahydro-pyrazino[2,1-c][1,4]oxazine-8-carboxylic acid (3-chloro-4-trifluoromethyl-phenyl)-amide]: 2.1 nM; for `C[C@H]1C(=O)N2C(CN1C(=O)Nc1ccc(F)c(Cl)c1)OC[C@@H]2CCN1CCC2(CC2)[C@H](O)C1` (stereo partly drawn) [Example 4, (3S,6S)-3-[2-((S)-4-Hydroxy-6-aza-spiro[2.5]oct-6-yl)-ethyl]-6-methyl-5-oxo-hexahydro-oxazolo[3,2-a]pyrazine-7-carboxylic acid (3-chloro-4-fluoro-phenyl)-amide]: 16 nM; for `C[C@H]1C(=O)N2[C@@H](CCN3CCC4(CC4)[C@H](O)C3)CO[C@]2(C)CN1C(=O)Nc1ccc(Cl)c(Cl)c1` [Example 14, (3S,6S,8aR)-3-[2-((S)-4-Hydroxy-6-aza-spiro[2.5]oct-6-yl)-ethyl]-6,8a-dimethyl-5-oxo-hexahydro-oxazolo[3,2-a]pyrazine-7-carboxylic acid (3,4-dichloro-phenyl)-amide]: 11.1 nM. The same measure for `C[C@H]1C(=O)N2[C@@H](CCCN3CCC4(CC4)[C@H](O)C3)CO[C@@]2(C)CN1C(=O)Nc1ccc(Cl)c(Cl)c1` [Example 21, (3S,6S,8aS)-3-[3-((S)-4-Hydroxy-6-aza-spiro[2.5]oct-6-yl)-propyl]-6,8a-dimethyl-5-oxo-hexahydro-oxazolo[3,2-a]pyrazine-7-carboxylic acid (3,4-dichloro-phenyl)-amide]: 3.8 nM; for `C[C@H]1C(=O)N2C(CN1C(=O)Nc1ccc(Cl)c(Cl)c1)OCC[C@H]2CN1CCC2(CC2)[C@H](O)C1` (stereo partly drawn) [Example 30, (4S,7S)-4-((S)-4-Hydroxy-6-aza-spiro[2.5]oct-6-ylmethyl)-7-methyl-6-oxo-hexahydro-pyrazino[2,1-b][1,3]oxazine-8-carboxylic acid (3,4-dichloro-phenyl)-amide]: 1.5 nM. In the case of `C[C@H]1C(=O)N2[C@@H](CCCN3CCC(F)(F)C3)CC[C@H]2CN1C(=O)Nc1ccc(Cl)c(Cl)c1` [Example 45, (3S,6S,8aS)-6-[3-(3,3-Difluoro-pyrrolidin-1-yl)-propyl]-3-methyl-4-oxo-hexahydro-pyrrolo[1,2-a]pyrazine-2-carboxylic acid (3,4-dichloro-phenyl)-amide], the half-maximal inhibitory concentration (IC50) came out at 200 nM.

With `C[C@H]1C(=O)N2[C@@H](CCN3CCC(F)(F)CC3)COC[C@H]2CN1C(=O)Nc1ccc(Cl)c(Cl)c1` [Example 56, (4S,7S,9aR)—N-(3,4-dichlorophenyl)-4-(2-(4,4-difluoropiperidin-1-yl)ethyl)-7-methyl-6-oxohexahydropyrazino[2,1-c][1,4]oxazine-8(1H)-carboxamide], the IC50 was determined as 81 nM. The same measure for `C[C@H]1C(=O)N2[C@@H](CCCN3CCC4(CC4)[C@H](O)C3)COC2(C)CN1C(=O)Nc1ccc(C(F)(F)F)c(Cl)c1` (stereo partly drawn) [Example 13, (3S,6S)-3-[3-((S)-4-Hydroxy-6-aza-spiro[2.5]oct-6-yl)-propyl]-6,8a-dimethyl-5-oxo-hexahydro-oxazolo[3,2-a]pyrazine-7-carboxylic acid (3-chloro-4-trifluoromethyl-phenyl)-amide]: 12.7 nM; for `C[C@H]1C(=O)N2[C@@H](CCCN3CCC4(CC4)[C@H](O)C3)COC2(C)CN1C(=O)Nc1ccc(Cl)c(Cl)c1` (stereo partly drawn) [Example 12, (3S,6S)-3-[3-((S)-4-Hydroxy-6-aza-spiro[2.5]oct-6-yl)-propyl]-6,8a-dimethyl-5-oxo-hexahydro-oxazolo[3,2-a]pyrazine-7-carboxylic acid (3,4-dichloro-phenyl)-amide]: 12 nM. Take `C[C@H]1C(=O)N2[C@@H](CCC(=O)N3CCC4(CC4)[C@H](O)C3)CO[C@H]2CN1C(=O)/C=C/c1ccc(F)c(Cl)c1` [Example 27, (3S,6S,8aS)-7-[(E)-3-(3-Chloro-4-fluoro-phenyl)-acryloyl]-3-[3-((S)-4-hydroxy-6-aza-spiro[2.5]oct-6-yl)-3-oxo-propyl]-6-methyl-hexahydro-oxazolo[3,2-a]pyrazin-5-one]: the half-inhibitory concentration (IC50) amounted to 49.4 nM.

On to `C[C@H]1C(=O)N2C(CN1C(=O)Nc1ccc(Cl)c(Cl)c1)OC[C@@H]2CCCN1CCC2(CC2)[C@H](O)C1` (stereo partly drawn) [Example 16, (3S,6S)-3-[3-((S)-4-Hydroxy-6-aza-spiro[2.5]oct-6-yl)-propyl]-6-methyl-5-oxo-hexahydro-oxazolo[3,2-a]pyrazine-7-carboxylic acid (3,4-dichloro-phenyl)-amide], for which the IC50 was found to be 7.4 nM. In the case of `C[C@H]1C(=O)N2[C@@H](CCCN3CCC4(CC4)[C@H](O)C3)CC[C@H]2CN1C(=O)Nc1ccc(Cl)c(Cl)c1` [Example 41, (3S,6S,8aS)-6-[3-((S)-4-Hydroxy-6-aza-spiro[2.5]oct-6-yl)-propyl]-3-methyl-4-oxo-hexahydro-pyrrolo[1,2-a]pyrazine-2-carboxylic acid (3,4-dichloro-phenyl)-amide], the IC50 was 3.3 nM.

The values are drawn from US8471004B2, “Bicyclic compounds” (Hoffman-La Roche Inc., priority 2009, dated 2013).
